Experimental data: ChEMBL document CHEMBL1909046, “DrugMatrix in vitro pharmacology data”

Key:
[1] = biological target: D(3) dopamine receptor (Homo sapiens, UniProt P35462); test: DRUGMATRIX: Dopamine D3 radioligand binding (ligand: [3H] Spiperone); assay type: cell membranes, CHO, Membrane; conditions: cho
[2] = biological target: T1, Alpha-2A adrenergic receptor (Homo sapiens, UniProt P08913); assay type: cell membranes, Sf9, Membrane; conditions: sf9; note: in other assays of this panel Not Active means under 50% inhibition at 10 µM
T1 sequence (P08913 whole entry): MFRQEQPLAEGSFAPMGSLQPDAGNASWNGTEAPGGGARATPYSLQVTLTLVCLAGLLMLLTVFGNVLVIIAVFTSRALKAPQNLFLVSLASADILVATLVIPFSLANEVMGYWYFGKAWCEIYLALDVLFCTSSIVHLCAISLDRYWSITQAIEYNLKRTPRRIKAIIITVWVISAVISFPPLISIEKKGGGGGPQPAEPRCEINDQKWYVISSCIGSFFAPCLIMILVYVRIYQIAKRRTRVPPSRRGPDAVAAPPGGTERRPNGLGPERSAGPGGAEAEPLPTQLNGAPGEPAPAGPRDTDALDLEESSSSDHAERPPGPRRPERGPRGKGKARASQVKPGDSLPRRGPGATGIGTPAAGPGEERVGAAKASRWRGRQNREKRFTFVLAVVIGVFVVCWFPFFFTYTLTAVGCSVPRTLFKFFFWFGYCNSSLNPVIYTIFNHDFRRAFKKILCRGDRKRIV

[3] = biological target: Mitogen-activated protein kinase 14 (Homo sapiens, UniProt Q16539); design: species or system Escherichia coli;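 note: inhibition of p38alpha enzyme activity in a biochemical kinase assay, with myelin basic protein serving as substrate; in other assays of this panel Not Active means under 50% inhibition at 10 µM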
Mitogen-activated protein kinase 14, sequence (Q16539 whole entry): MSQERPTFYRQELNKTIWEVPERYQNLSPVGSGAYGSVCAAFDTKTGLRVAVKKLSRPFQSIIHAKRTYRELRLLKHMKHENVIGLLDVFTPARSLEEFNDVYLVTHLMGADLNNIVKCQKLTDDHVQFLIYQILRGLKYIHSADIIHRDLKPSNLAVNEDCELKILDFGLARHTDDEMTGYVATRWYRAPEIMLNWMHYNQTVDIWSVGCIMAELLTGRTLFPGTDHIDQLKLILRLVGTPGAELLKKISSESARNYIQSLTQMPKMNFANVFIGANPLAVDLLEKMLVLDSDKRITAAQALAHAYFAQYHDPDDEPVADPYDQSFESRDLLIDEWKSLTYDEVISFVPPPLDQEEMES

[4] = biological target: Acetylcholinesterase (Homo sapiens, UniProt P22303); test: DRUGMATRIX: Acetylcholinesterase enzyme inhibition (substrate: acetylthiocholine); assay type: cell-based, HEK293; conditions: hek293; Not Active = under 50% inhibition at 10 µM
Acetylcholinesterase, sequence (P22303 whole entry): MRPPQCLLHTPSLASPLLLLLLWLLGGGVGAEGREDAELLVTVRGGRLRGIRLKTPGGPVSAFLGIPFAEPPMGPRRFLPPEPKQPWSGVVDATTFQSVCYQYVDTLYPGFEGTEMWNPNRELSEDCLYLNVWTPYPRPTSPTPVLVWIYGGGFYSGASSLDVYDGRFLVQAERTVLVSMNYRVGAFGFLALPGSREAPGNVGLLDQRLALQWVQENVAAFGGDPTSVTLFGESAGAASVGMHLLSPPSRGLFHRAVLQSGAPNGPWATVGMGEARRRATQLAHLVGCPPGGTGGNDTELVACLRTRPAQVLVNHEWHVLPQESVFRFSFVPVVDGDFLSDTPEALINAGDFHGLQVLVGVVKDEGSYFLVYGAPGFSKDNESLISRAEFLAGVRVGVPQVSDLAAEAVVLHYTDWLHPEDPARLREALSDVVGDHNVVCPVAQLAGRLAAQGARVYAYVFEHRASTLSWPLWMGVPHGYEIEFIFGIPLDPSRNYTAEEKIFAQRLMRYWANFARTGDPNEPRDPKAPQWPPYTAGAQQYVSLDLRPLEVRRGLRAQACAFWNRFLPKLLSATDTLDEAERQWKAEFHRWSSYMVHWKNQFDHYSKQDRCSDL

[5] = biological target: Matrix metalloproteinase-9 (Homo sapiens, UniProt P14780); test: biochemical; assay type: cell-based;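 note: inhibition of isolated MMP-9 enzyme activity toward a synthetic peptide substrate, from the DrugMatrix protease screening panel; in other assays of this panel Not Active means under 50% inhibition at 10 µM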
Matrix metalloproteinase-9, sequence (P14780 whole entry): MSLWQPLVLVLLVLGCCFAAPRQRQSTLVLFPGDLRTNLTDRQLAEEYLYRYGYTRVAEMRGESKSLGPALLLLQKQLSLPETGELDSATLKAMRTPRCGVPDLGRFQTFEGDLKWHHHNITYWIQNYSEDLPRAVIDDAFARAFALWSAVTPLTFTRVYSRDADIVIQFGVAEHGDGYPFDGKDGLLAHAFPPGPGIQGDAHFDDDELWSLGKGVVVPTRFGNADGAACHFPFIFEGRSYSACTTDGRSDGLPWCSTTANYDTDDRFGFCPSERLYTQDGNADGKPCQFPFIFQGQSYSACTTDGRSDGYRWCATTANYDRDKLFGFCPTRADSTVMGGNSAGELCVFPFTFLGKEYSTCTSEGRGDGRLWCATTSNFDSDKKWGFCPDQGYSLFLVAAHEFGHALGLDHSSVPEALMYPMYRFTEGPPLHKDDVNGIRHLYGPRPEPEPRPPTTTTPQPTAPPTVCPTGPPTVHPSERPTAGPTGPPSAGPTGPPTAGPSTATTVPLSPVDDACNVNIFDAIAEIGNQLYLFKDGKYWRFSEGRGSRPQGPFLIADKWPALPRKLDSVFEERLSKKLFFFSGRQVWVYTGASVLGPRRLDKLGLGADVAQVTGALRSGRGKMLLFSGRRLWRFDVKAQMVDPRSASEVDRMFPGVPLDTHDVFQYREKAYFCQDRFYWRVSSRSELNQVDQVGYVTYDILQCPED

D(3) dopamine receptor, sequence (P35462 whole entry): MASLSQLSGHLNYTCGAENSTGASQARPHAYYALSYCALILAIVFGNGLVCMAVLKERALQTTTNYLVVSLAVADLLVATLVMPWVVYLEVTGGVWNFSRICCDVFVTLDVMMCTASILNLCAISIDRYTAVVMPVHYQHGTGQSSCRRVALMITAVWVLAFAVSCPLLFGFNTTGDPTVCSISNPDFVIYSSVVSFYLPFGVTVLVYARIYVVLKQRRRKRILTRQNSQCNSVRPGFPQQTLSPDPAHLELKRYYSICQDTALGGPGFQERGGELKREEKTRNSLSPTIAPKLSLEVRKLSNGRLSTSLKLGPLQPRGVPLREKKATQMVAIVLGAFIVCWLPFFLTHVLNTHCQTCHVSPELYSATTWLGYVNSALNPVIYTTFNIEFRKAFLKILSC

GRAMICIDIN
Not Active: IC50 [1] | Ki [1] | IC50 [2] | Ki [2] | IC50 [3] | Ki [3] | IC50 [4] | Ki [4] | IC50 [5] | Ki [5]

NYSTATIN
Not Active: IC50 [1] | Ki [1] | IC50 [2] | Ki [2] | IC50 [3] | Ki [3] | IC50 [4] | Ki [4] | IC50 [5] | Ki [5]
